In US8703172B2, “Sphingolipids for improvement of the composition of the intestinal flora” (Nederlandse Organizatie voor …, priority 2003, dated 2014):
≈ marks a conversion by molar mass, not a printed value. Entries after “also recorded” stand apart in the source; their conditions may differ. Like-named read-outs stand apart in the source and are kept apart here.

What was measured:
[1] = tested on: Salmonella enteritidis; experiment: MIC on agar plates (TSA); assay type: cell-based; conditions: TSA agar plate, aerobic, 48 hours at 30° C.; for MIC: Salmonella enterica, ENTERITIDIS, read-out: MIC, S. enteritidis
[2] = tested on: Pseudomonas aeruginosa; experiment: MIC on agar plates (TSA); assay type: cell-based; conditions: TSA agar plate, aerobic, 48 hours at 30° C.; for MIC: Pseudomonas aeruginosa, read-out: MIC, P. aeruginosa
[3] = tested on: Bifidobacterium adolescentis; experiment: MIC on agar plates (RCBA); assay type: cell-based; conditions: RCBA agar plate, anaerobic, 72 hours at 30° C.; for MIC: Bifidobacterium adolescentis, read-out: MIC, B. adolescentis
[4] = tested on: Bifidobacterium spp.; experiment: MIC on agar plates (RCBA); assay type: cell-based; conditions: RCBA agar plate, anaerobic, 72 hours at 30° C.; for MIC: Bifidobacterium, read-out: MIC, Bif. spp.
[5] = tested on: Fusobacterium nucleatum; experiment: MIC on agar plates (RCBA); assay type: cell-based; conditions: for MIC: Fusobacterium nucleatum, read-out: MIC, F. nucleatum
[6] = tested on: Bacteroides fragilis; experiment: MIC on agar plates (RCBA); assay type: cell-based; conditions: RCBA agar plate, anaerobic, 72 hours at 30° C.; for MIC: Bacteroides fragilis, read-out: MIC, B. fragilis
[7] = tested on: Clostridium spp.; experiment: MIC on agar plates (RCBA); assay type: cell-based; conditions: for MIC: Clostridium, 72 h, read-out: MIC, C. spp.
[8] = tested on: Gram-positive bacteria; experiment: Antimicrobial activity on agar plates, summary for Gram-positive bacteria; assay type: cell-based
[9] = tested on: Listeria monocytogenes; experiment: MIC on agar plates (TSA); conditions: for MIC, L. monocytogenes: TSA agar plate, aerobic, 48 hours at 30° C.; for MIC: Listeria monocytogenes, 48 h, read-out: MIC, L. monocytogenes
[10] = tested on: Streptococcus suis type 2; experiment: MIC on agar plates (TSA); conditions: for MIC, S. suis type 2: TSA agar plate, aerobic, 48 hours at 30° C.; for MIC: Streptococcus suis, TYPE2, 48 h, read-out: MIC, S. suis type 2
[11] = tested on: Bacillus cereus; experiment: MIC on agar plates (TSA); conditions: for MIC, B. cereus: TSA agar plate, aerobic, 48 hours at 30° C.; for MIC: Bacillus cereus, 48 h, read-out: MIC, B. cereus
[12] = tested on: Leuconostoc carnosum; experiment: MIC on agar plates (MRSA); conditions: for MIC, L. carnosum: agar plate, anaerobic, 72 hours at 30° C.; for MIC: 72 h, read-out: MIC, L. carnosum
[13] = tested on: Lactobacillus sake; experiment: MIC on agar plates (MRSA); conditions: for MIC, L. sake: anaerobic, 72 hours at 30° C.; for MIC: Latilactobacillus sakei, 72 h, read-out: MIC, L. sake
[14] = tested on: Lactobacillus acidophilus; experiment: MIC on agar plates (MRSA); conditions: for MIC, L. acidophilus: anaerobic, 72 hours at 30° C.; for MIC: Lactobacillus acidophilus, 72 h, read-out: MIC, L. acidophilus
[15] = tested on: Lactobacillus casei; experiment: MIC on agar plates (MRSA); conditions: for MIC, L. casei: MRSA agar plate, anaerobic, 72 hours at 30° C.; for MIC: Lacticaseibacillus casei, 72 h, read-out: MIC, L. casei
[16] = tested on: Enterococcus hirae; experiment: MIC on agar plates (MRSA); conditions: for MIC, E. hirae: MRSA agar plate, anaerobic, 72 hours at 30° C.; for MIC: Enterococcus hirae, 72 h, read-out: MIC, E. hirae
[17] = tested on: Clostridium perfringens; experiment: microbe, parasite or virus in culture; assay type: cell-based; conditions: 72 h, read-out: MIC, C. perfringens
[18] = tested on: Clostridium difficile; experiment: MIC on agar plates (RCBA); assay type: cell-based; conditions: Clostridioides difficile; RCBA agar plate, anaerobic, 72 hours at 30° C.
[19] = tested on: Clostridium difficile; experiment: Survival in liquid ileum medium; assay type: cell-based; conditions: within 200 minutes
[20] = tested on: Lactobacillus acidophilus; experiment: Antimicrobial activity in small intestine model TIM-1; assay type: cell-based; conditions: 20 μg/ml of sphingolipid; lumen samples plated on Rogosa agar
[21] = tested on: Clostridium difficile; experiment: as above; assay type: cell-based; conditions: 20 μg/ml of sphingolipid; lumen samples plated on Clostridium difficile agar
[22] = assay type: in vitro ADME
Method: (§1) Because the sphingolipids need to be transported together with the food to the small and large intestines to be able to be active there, the transport of phytosphingosine and sphinganine in the stomach and small intestine model TIM-1 was tested. Also, the transport of phytosphingosine in a fistulated pig was tested after the animal had been fed with feed containing phytosphingosine (1 wt. %). In a fistulated pig, the small intestine is uncoupled from the large intestine so that the digested feed at the end of the small intestine can be collected.
To investigate whether sphingolipids from the food are transported through the small intestine without being absorbed or being chemically or enzymatically modified in the small intestine, phytosphingosine and sphinganine were mixed in a standard Tim-1 food and exposed to a TIM-1 treatment. Of each sphingolipid, 5 mg per 100 grams of food (0.005 wt. %) in the food were tested. After starting the TIM-1 digestion processes in the TIM-1 stomach, at the fixed times, lumen samples of 100 grams were taken. Also, dialysate samples were taken from the material which was transported through the semi-permeable TIM-1 membrane. The dialysate samples varied between 1428 and 1122 grams. […] Next to the samples, the exposure time in minutes is given.

[23] = pig, in vivo
Method: as §1
To investigate in an in vivo system whether sphingolipids from the food do actually arrive in the large intestine and are not prematurely absorbed or metabolized, pig basic feed to which phytosphingosine (1 wt. %) was added was fed to a fistulated pig.
The feed was prepared by mixing a solution of phytosphingosine in ethanol with the feed and drying it in vacuo. Every hour, the intestinal content (chymus) at the end of the small intestine was separately collected and frozen dry. The dry intestinal contents were then extracted with chloroform/methanol (2:1, v/v). The extracts were then filtered over glass wool and evaporated under a nitrogen flow. The residues were examined for the presence of phytosphingosine, sphingosine, sphinganine and sphingomyelin by means of LC-MS.

[24] = tested on: Lactobacillus acidophilus; experiment: Survival in liquid ileum medium; conditions: within 200 minutes
[25] = tested on: bacteria tested; experiment: Antimicrobial activity on agar plates, summary for the bacteria tested; assay type: cell-based
[26] = RCBA agar plate, anaerobic, 72 hours at 30° C.
[27] = ileum medium, absence of bile, 10 and 50 μg/ml
[28] = 60 min, 5 mg per 100 grams of food
[29] = 120 min, 5 mg per 100 grams of food
[30] = 180 min, 5 mg per 100 grams of food
[31] = 240 min, 5 mg per 100 grams of food

## CCCCCCCCCCCCC/C=C/[C@@H](O)[C@@H](N)COP(=O)([O-])OCC[N+](C)(C)C [Lysosphingomyelin, lysosphingomyelin]
[1]
  MIC, S. enteritidis: >365 µg/mL
[2]
  MIC, P. aeruginosa: >365 µg/mL
[3]
  MIC, B. adolescentis: <3.1 µg/mL
[4]
  MIC, Bif. spp.: 10 µg/mL (≈ 21.5 µM)
[5]; [26]
  MIC, F. nucleatum: >365 µg/mL
[6]
  MIC, B. fragilis: 11.4 µg/mL (≈ 24.5 µM)
[7]; [26]
  MIC, C. spp.: <3.1 µg/mL
[8]; agar plates
  Antimicrobial activity against Gram-positive bacteria: killed; also recorded: strong antimicrobial activity
[9]
  MIC, L. monocytogenes: <3.1 µg/mL
[10]
  MIC, S. suis type 2: <3.1 µg/mL
[11]
  MIC, B. cereus: <3.1 µg/mL
[12]
  MIC, L. carnosum: <3.1 µg/mL
[13]
  MIC, L. sake: 20 µg/mL (≈ 43 µM)
[14]
  MIC, L. acidophilus: 16.6 µg/mL (≈ 35.7 µM)
[15]
  MIC, L. casei: >365 µg/mL
[16]
  MIC, E. hirae: >365 µg/mL

## CC(=O)O.CCCCCCCCCCCCCCC[C@@H](O)[C@@H](N)CO [Sphinganine, sphinganine acetate]
[1]
  MIC: > 731 µg/mL
[2]
  MIC: > 731 µg/mL
[3]
  MIC: > 73 µg/mL
[4]
  MIC: 0.9 µg/mL
[5]; 72 h
  MIC: > 731 µg/mL
[6]
  MIC: 0.3 µg/mL
[17]
  MIC: > 36.5 µg/mL
[18]
  MIC: > 73 µg/mL
[7]
  MIC: > 73 µg/mL
[8]; agar plates, acetate
  Antimicrobial activity against Gram-positive bacteria: killed; also recorded: strong antimicrobial activity
[19]; [27]
  Killing of Clostridium difficile: virtually completely killed
[19]; liquid cultures, 50 ppm
  Killing of Clostridium difficile: for the larger part killed
[20]
  Antimicrobial activity against Lactobacillus acidophilus in TIM-1: no demonstrable antimicrobial activity
[21]
  Antimicrobial activity against Clostridium difficile in TIM-1: no demonstrable antimicrobial activity
[22]
  Transport through the TIM-1 system: transported to the large intestine to a sufficient extent
[22]; 5 mg per 100 grams of food
  Concentration in TIM-1 sample: Dialysate ileum 0-120′: 0 ng/mL
  Concentration in TIM-1 sample: Dialysate ileum 120-240′: 0 ng/mL
  Concentration in TIM-1 sample: Dialysate jejunum 0-120′: 0 ng/mL
  Concentration in TIM-1 sample: Dialysate jejunum 120-240′: 0 ng/mL
  Concentration in TIM-1 sample: Food: 19360 ng/mL
  Concentration in TIM-1 sample: Residue jejunum/ileum + dialysis fluid: 8620 ng/mL
  Concentration in TIM-1 sample: Residue stomach/duodenum + dialysis fluid: 2730 ng/mL
  Share of the amount used found in the samples (rough mass balance): approx. 20%
[22]; [28]
  Concentration in TIM-1 sample: Lumen ileum 60′: 740 ng/mL
  Concentration in TIM-1 sample: Lumen jejunum 60′: 8750 ng/mL
[22]; [29]
  Concentration in TIM-1 sample: Lumen ileum 120′: 4520 ng/mL
  Concentration in TIM-1 sample: Lumen jejunum 120′: 11510 ng/mL
[22]; [30]
  Concentration in TIM-1 sample: Lumen ileum 180′: 5300 ng/mL
  Concentration in TIM-1 sample: Lumen jejunum 180′: 12470 ng/mL
[22]; [31]
  Concentration in TIM-1 sample: Lumen ileum 240′: 7910 ng/mL
  Concentration in TIM-1 sample: Lumen jejunum 240′: 10460 ng/mL
[23]
  Presence in the intestinal contents at the end of the small intestine: small amounts
[9]
  MIC: < 6.3 µg/mL
[10]
  MIC: < 6.3 µg/mL
[11]
  MIC: < 6.3 µg/mL
[12]
  MIC: < 0.3 µg/mL
[13]
  MIC: > 70 µg/mL
[14]
  MIC: 222 µg/mL
[15]
  MIC: 246 µg/mL
[16]
  MIC: > 731 µg/mL
[24]; [27]
  Killing of Lactobacillus acidophilus: virtually completely killed
[24]; liquid cultures, 50 ppm
  Killing of Lactobacillus acidophilus: for the larger part killed

## CCCCCCCCCCCCC/C=C/[C@@H](O)[C@@H](N)CO [Sphingosine, sphingosine]
[1]
  MIC: > 731 µg/mL
[2]
  MIC: > 731 µg/mL
[3]
  MIC: < 6.3 µg/mL
[4]
  MIC: < 6.3 µg/mL
[5]; [26]
  MIC: < 6.3 µg/mL
[6]
  MIC: < 6.3 µg/mL
[7]
  MIC: < 6.3 µg/mL
[8]
  Antimicrobial activity against Gram-positive bacteria: killed; also recorded: strong antimicrobial activity
[23]
  Presence in the intestinal contents at the end of the small intestine: No sphingosine could be demonstrated
[9]
  MIC: < 6.3 µg/mL
[10]
  MIC: < 6.3 µg/mL
[11]
  MIC: < 6.3 µg/mL
[12]
  MIC: < 6.3 µg/mL
[13]
  MIC: < 6.3 µg/mL
[14]
  MIC: < 6.3 µg/mL
[15]
  MIC: < 6.3 µg/mL
[16]
  MIC: 84 µg/mL (≈ 280 µM)

## glucosylceramide III
[1]
  MIC, S. enteritidis: >365 µg/mL
[2]
  MIC, P. aeruginosa: >365 µg/mL
[3]
  MIC, B. adolescentis: >365 µg/mL
[4]
  MIC, Bif. spp.: >365 µg/mL
[5]; [26]
  MIC, F. nucleatum: >365 µg/mL
[6]
  MIC, B. fragilis: >365 µg/mL
[7]
  MIC, C. spp.: >365 µg/mL
[25]
  Inhibition of the bacteria tested: do not inhibit any of the bacteria tested
[9]
  MIC, L. monocytogenes: >365 µg/mL
[10]
  MIC, S. suis type 2: >365 µg/mL
[11]
  MIC, B. cereus: >365 µg/mL
[12]
  MIC, L. carnosum: >365 µg/mL
[13]
  MIC, L. sake: >365 µg/mL
[14]
  MIC, L. acidophilus: >365 µg/mL
[15]
  MIC, L. casei: >365 µg/mL
[16]
  MIC, E. hirae: >365 µg/mL
